Legend:
Format in all cases: functional, cell-based
HEC-1B cell line = assay: In vitro cytotoxicity against human tumor cell line HEC-1-B
Caov-3 cell line = assay: In vitro cytotoxicity against human tumor cell line CAOV-3
DLD-1 = assay: In vitro cytotoxicity against human tumor cell line DLD-1
[1] = tested on: KATO III stomach cancer cell line; assay: In vitro cytotoxicity against human tumor cell line KATO-III
A549 = assay: In vitro cytotoxicity against human tumor cell line A549

Row | SMILES | IC50 (HEC-1B cell line) | IC50 (Caov-3 cell line) | IC50 (DLD-1) | IC50 [1] | IC50 (A549)
1 | CCC(C)NCCc1c2c(nc3cc4c(cc13)OCCO4)-c1cc3c(c(=O)n1C2)COC(=O)C3(O)CC (stereo not drawn) | 3290 nM | 2000 nM | – | – | –
2 | CCC1(O)C(=O)OCc2c1cc1n(c2=O)Cc2c-1nc1cc3c(cc1c2CCNC(C)C)OCCO3 (stereo not drawn) | 12800 nM | 2320 nM | – | – | –
3 | CCC1(O)C(=O)OCc2c1cc1n(c2=O)Cc2c-1nc1cc3c(cc1c2CCNC(C)C)OCO3 (stereo not drawn) | 670 nM | – | 8.9 nM | 45 nM | –
4 | CCNCCc1c2c(nc3cc4c(cc13)OCO4)-c1cc3c(c(=O)n1C2)COC(=O)C3(O)CC (stereo not drawn) | 6060 nM | 33000 nM | – | 2.9 nM | 0.094 nM
5 | CCC(C)NCCc1c2c(nc3cc4c(cc13)OCO4)-c1cc3c(c(=O)n1C2)COC(=O)C3(O)CC (stereo not drawn) | 14800 nM | 1510 nM | – | – | –
6 | CCC(C)CNCCc1c2c(nc3cc4c(cc13)OCO4)-c1cc3c(c(=O)n1C2)COC(=O)C3(O)CC (stereo not drawn) | 2710 nM | 6570 nM | – | – | –
7 | CC[C@@]1(O)C(=O)OCc2c1cc1n(c2=O)Cc2cc3ccccc3nc2-1 [CAMPTOTHECIN] | 60 nM | 2.9 nM | 14 nM | 46 nM | 0.33 nM
8 | CCN(CC)CCNCCc1c2c(nc3cc4c(cc13)OCCO4)-c1cc3c(c(=O)n1C2)COC(=O)C3(O)CC (stereo not drawn) | 12100 nM | > 100000 nM | – | – | –
9 | CCCNCCc1c2c(nc3cc4c(cc13)OCCO4)-c1cc3c(c(=O)n1C2)COC(=O)C3(O)CC (stereo not drawn) | > 100000 nM | > 100000 nM | – | – | –
10 | CCCCNCCc1c2c(nc3cc4c(cc13)OCO4)-c1cc3c(c(=O)n1C2)COC(=O)C3(O)CC (stereo not drawn) | 4680 nM | 62000 nM | – | – | –
11 | CCC1(O)C(=O)OCc2c1cc1n(c2=O)Cc2c-1nc1ccccc1c2CCNC(C)C (stereo not drawn) | – | – | 7.3 nM | 1.6 nM | 0.26 nM
12 | CCCNCCc1c2c(nc3cc4c(cc13)OCO4)-c1cc3c(c(=O)n1C2)COC(=O)C3(O)CC (stereo not drawn) | 2110 nM | 63000 nM | 26 nM | – | 0.11 nM
13 | CCC1(O)C(=O)OCc2c1cc1n(c2=O)Cc2c-1nc1cc3c(cc1c2CCNCC(C)C)OCO3 (stereo not drawn) | 10000 nM | 21900 nM | – | – | –
14 | CCC(C)CNCCc1c2c(nc3cc4c(cc13)OCCO4)-c1cc3c(c(=O)n1C2)COC(=O)C3(O)CC (stereo not drawn) | 3440 nM | 3500 nM | – | – | –
15 | CCC1(O)C(=O)OCc2c1cc1n(c2=O)Cc2c-1nc1cc3c(cc1c2CCNCC(C)C)OCCO3 (stereo not drawn) | 3650 nM | 7120 nM | – | – | –
16 | CCCCNCCc1c2c(nc3cc4c(cc13)OCCO4)-c1cc3c(c(=O)n1C2)COC(=O)C3(O)CC (stereo not drawn) | 3650 nM | 7120 nM | – | – | –
17 | CCNCCc1c2c(nc3cc4c(cc13)OCCO4)-c1cc3c(c(=O)n1C2)COC(=O)C3(O)CC (stereo not drawn) | 190 nM | – | – | – | 0.5 nM

Reference: ChEMBL document CHEMBL1131880, “Synthesis and in vitro cytotoxicity of hexacyclic camptothecin analogues” (Bioorg Med Chem Lett, 1999)
